Drawing on patent publication US10414811B2, “Protease-resistant lipidated GLP-1 analogs” (MEDIMMUNE LIMITED, priority 2015, dated 2019), this text covers EC50 for three compounds.

Common to all, as to assay type: cell-based
The target of assay [1] is T1, human GLP-1 receptor (GLP-1R) (Homo sapiens, UniProt P43220).
T1 construct: expressed in transfected cells
Put plainly: cAMP assay, human GLP-1R cells. In short, it runs like this: (§1)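 Peptide-stimulated cAMP measured by two-step HTRF after a 30 min room-temperature incubation with receptor-expressing cells (hGLP-1R, hGIPR at 1×10^5 cells/ml; hGCGR at 2×10^5 cells/ml). Duplicate dilutions; EC50 from 4-parameter logistic fit of % Delta F.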
A general note: Cyclic AMP is a second messenger, typically raised through Gs and lowered through Gi signalling.

Assay [2] deals with T2, human glucose-dependent insulinotropic peptide receptor (GIPR) (Homo sapiens, UniProt P48546).
T2 construct: expressed in transfected cells
T2 sequence (P48546 22-466): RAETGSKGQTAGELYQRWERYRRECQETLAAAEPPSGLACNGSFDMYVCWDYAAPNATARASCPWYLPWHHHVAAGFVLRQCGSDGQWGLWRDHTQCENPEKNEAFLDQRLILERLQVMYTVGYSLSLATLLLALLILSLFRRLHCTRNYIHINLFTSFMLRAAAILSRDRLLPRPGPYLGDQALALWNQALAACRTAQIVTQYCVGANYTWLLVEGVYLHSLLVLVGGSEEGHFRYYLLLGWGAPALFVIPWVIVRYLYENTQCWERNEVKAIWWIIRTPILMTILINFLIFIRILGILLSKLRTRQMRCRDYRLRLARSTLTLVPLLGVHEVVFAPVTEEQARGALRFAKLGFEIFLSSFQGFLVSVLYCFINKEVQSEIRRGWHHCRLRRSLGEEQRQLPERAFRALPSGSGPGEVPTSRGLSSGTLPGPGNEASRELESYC
The experiment in a line: cAMP assay, human GIPR cells. The note with it: cAMP assay. In a few lines: as §1

For assay [3], the target named is T3, human glucagon receptor (GCGR) (Homo sapiens, UniProt P47871).
T3 construct: expressed in transfected cells
T3 sequence (P47871 26-477): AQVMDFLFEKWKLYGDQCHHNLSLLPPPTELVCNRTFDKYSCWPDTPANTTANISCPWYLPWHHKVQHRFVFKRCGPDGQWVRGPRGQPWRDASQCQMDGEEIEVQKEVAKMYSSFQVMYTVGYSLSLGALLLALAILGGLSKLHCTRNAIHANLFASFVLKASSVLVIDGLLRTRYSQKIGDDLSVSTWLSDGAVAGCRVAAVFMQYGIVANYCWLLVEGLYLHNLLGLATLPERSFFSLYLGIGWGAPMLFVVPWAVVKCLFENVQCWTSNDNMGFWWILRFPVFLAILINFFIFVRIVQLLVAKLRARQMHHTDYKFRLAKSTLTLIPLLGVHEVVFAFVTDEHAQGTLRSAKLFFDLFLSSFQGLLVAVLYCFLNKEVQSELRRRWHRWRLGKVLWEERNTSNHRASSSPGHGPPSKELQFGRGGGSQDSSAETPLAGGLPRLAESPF
Put plainly: cAMP assay, human GCGR cells. Particulars: cAMP assay. In a few lines: as §1

[4] abbreviates: cAMP assay, first determination (n1), read-out: Primary assay EC50 GLP-1R n1.
Where [5] appears, read: cAMP assay, second determination (n2), read-out: Primary assay EC50 GLP-1R n2.
The mark [6] stands for this setting: mean of n1 and n2, read-out: Mean pM GLP-1R.
[7] abbreviates: first determination (n1), read-out: Primary assay EC50 GIP-R (n1).
[8] abbreviates: second determination (n2), read-out: Primary assay EC50 GIP-R (n2).
Where [9] appears, read: first determination (n1), read-out: Primary assay EC50 Gluc-R (n1).
Setting [10] is: second determination (n2), read-out: Primary assay EC50 Gluc-R (n2).

Read-outs that look alike come from different tables or passages of the source. Square brackets hold non-standard residues; d marks the D form. Peptide text beside a SMILES is read from it. αMeF = C[C@](N)(Cc1ccccc1)C(=O)O; αMeK = C[C@](N)(CCCCN)C(=O)O; αMeS = C[C@](N)(CO)C(=O)O; Aib = CC(C)(N)C(=O)O

T1 sequence (P43220 24-463): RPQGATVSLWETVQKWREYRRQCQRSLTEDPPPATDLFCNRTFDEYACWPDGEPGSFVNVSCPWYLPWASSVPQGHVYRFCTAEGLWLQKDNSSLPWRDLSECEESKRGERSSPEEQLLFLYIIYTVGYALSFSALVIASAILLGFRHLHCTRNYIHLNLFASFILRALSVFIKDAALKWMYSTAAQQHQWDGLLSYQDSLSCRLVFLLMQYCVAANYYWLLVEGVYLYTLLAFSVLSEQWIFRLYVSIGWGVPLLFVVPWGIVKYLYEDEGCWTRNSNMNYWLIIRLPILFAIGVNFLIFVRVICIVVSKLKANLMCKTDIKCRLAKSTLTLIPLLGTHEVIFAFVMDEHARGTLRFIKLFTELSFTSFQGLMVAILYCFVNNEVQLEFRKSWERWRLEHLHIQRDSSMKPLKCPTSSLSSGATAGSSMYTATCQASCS

For the compound `CC[C@H](C)[C@H](NC(=O)[C@](C)(Cc1ccccc1)NC(=O)[C@H](CCC(=O)O)NC(=O)[C@H](CCCCNC(=O)CCCCCNC(=O)CCCCCNC(=O)CCCCCCCCCCCCCCCCC(=O)O)NC(=O)[C@H](C)NC(=O)[C@H](C)NC(=O)[C@H](CCC(=O)O)NC(=O)CNC(=O)[C@H](CCC(=O)O)NC(=O)[C@H](CC(C)C)NC(=O)[C@](C)(Cc1ccccc1)NC(=O)[C@H](CO)NC(=O)[C@](C)(CO)NC(=O)[C@@H](NC(=O)[C@H](CC(=O)O)NC(=O)[C@H](CO)NC(=O)[C@@H](NC(=O)[C@](C)(Cc1ccccc1)NC(=O)[C@H](CO)NC(=O)CNC(=O)[C@H](CCC(=O)O)NC(=O)C(C)(C)NC(=O)[C@@H](N)Cc1c[nH]cn1)[C@@H](C)O)C(C)C)C(=O)N[C@@H](C)C(=O)N[C@@](C)(Cc1ccccc1)C(=O)N[C@H](C(=O)N[C@H](C(=O)N[C@@](C)(CCCCN)C(=O)NCC(=O)NCC(N)=O)C(C)C)C(C)C` [compound 159], the EC50 in assay [1] (setting [4]) is 280 pM; in assay [1] (setting [5]) it was 230 pM; in assay [1] (setting [6]), 254 pM; in assay [2] (setting [7]), at least 27 nM; in assay [2] (setting [8]), at least 27 nM; in assay [3] (setting [9]) it was at least 27 nM. The EC50 in assay [3] (setting [10]) is at least 27 nM.
For the compound `CC[C@H](C)[C@H](NC(=O)[C@](C)(Cc1ccccc1)NC(=O)[C@H](CCC(=O)O)NC(=O)[C@](C)(CCCCN)NC(=O)[C@H](C)NC(=O)[C@H](C)NC(=O)[C@H](CCC(=O)O)NC(=O)CNC(=O)[C@H](CCC(=O)O)NC(=O)[C@H](CC(C)C)NC(=O)[C@](C)(Cc1ccccc1)NC(=O)[C@H](CO)NC(=O)[C@](C)(CO)NC(=O)[C@@H](NC(=O)[C@H](CC(=O)O)NC(=O)[C@H](CC(=O)O)NC(=O)[C@@H](NC(=O)[C@](C)(Cc1ccccc1)NC(=O)[C@H](CO)NC(=O)CNC(=O)[C@H](CCC(=O)O)NC(=O)C(C)(C)NC(=O)[C@@H](N)Cc1c[nH]cn1)[C@@H](C)O)C(C)C)C(=O)N[C@@H](C)C(=O)N[C@@](C)(Cc1ccccc1)C(=O)N[C@H](C(=O)N[C@H](C(=O)N[C@@](C)(CCCCN)C(=O)NCC(=O)NCC(N)=O)C(C)C)C(C)C` [compound 27] (H-H[Aib]EGS[αMeF]TDDV[αMeS]S[αMeF]LEGEAA[αMeK]E[αMeF]IA[αMeF]VV[αMeK]GG-NH2; N-terminus assumed), the EC50 is 420 pM in assay [1] (setting [4]); 480 pM in assay [1] (setting [5]); 446 pM in assay [1] (setting [6]); at least 100 nM in assay [2] (setting [7]); at least 100 nM in assay [2] (setting [8]); at least 100 nM in assay [3] (setting [9]). The EC50 in assay [3] (setting [10]) is 40 nM.
Take `CC[C@H](C)[C@H](NC(=O)[C@](C)(Cc1ccccc1)NC(=O)[C@H](CCC(=O)O)NC(=O)[C@](C)(CCCCN)NC(=O)[C@H](C)NC(=O)[C@H](C)NC(=O)[C@H](CCC(=O)O)NC(=O)CNC(=O)[C@H](CCC(=O)O)NC(=O)[C@H](CC(C)C)NC(=O)[C@](C)(Cc1ccccc1)NC(=O)[C@H](CO)NC(=O)[C@](C)(CO)NC(=O)[C@@H](NC(=O)[C@H](CC(=O)O)NC(=O)[C@](C)(CO)NC(=O)[C@@H](NC(=O)[C@](C)(Cc1ccccc1)NC(=O)[C@H](CO)NC(=O)CNC(=O)[C@H](CCC(=O)O)NC(=O)C(C)(C)NC(=O)[C@@H](N)Cc1c[nH]cn1)[C@@H](C)O)C(C)C)C(=O)N[C@@H](C)C(=O)N[C@@](C)(Cc1ccccc1)C(=O)N[C@H](C(=O)N[C@H](C(=O)N[C@@](C)(CCCCN)C(=O)NCC(=O)NCC(N)=O)C(C)C)C(C)C` [compound 18]: the EC50 was 4100 pM in assay [1] (setting [4]); 5800 pM in assay [1] (setting [5]); 4940 pM in assay [1] (setting [6]); at least 100 nM in assay [2] (setting [7]); at least 100 nM in assay [2] (setting [8]); at least 100 nM in assay [3] (setting [9]). In assay [3] (setting [10]), the EC50 is at least 100 nM.
